Results as given in patent US7026281B1, “Antagonistic analogs of GH-RH inhibiting IGF-I and -II” (The Administrators of the Tulane Educational Fund, priority 1998, dated 2006).
Square brackets hold non-standard residues; d marks the D form. Peptide text beside a SMILES is read from it. * marks the point of attachment. Phe(4-Cl) = N[C@@H](Cc1ccc(Cl)cc1)C(=O)O; hArg = N=C(N)NCCCC[C@H](N)C(=O)O; X1 = O=C(Cc1c[nH]c2ccccc12)*; Nle = CCCC[C@H](N)C(=O)O; Abu = CC[C@H](N)C(=O)O; PhAc = O=C(Cc1ccccc1)*

Experiments:
[1] = system: hGH-RH(1–29)NH2 induced GH release; experiment: Inhibition of GH release in superfused rat pituitary system; type: cell-based; conditions: antagonist 30 nM; for Inhibition of GH release (%) 30 min: 1 nM hGH-RH(1–29)NH2 30 min later; for Inhibition of GH release (%) 60 min: 1 nM hGH-RH(1–29)NH2 60 min later; for Inhibition of GH release (%) 90 min: 1 nM hGH-RH(1–29)NH2 90 min later; for Inhibition of GH release (%) 120 min: 1 nM hGH-RH(1–29)NH2 120 min later; for Inhibition of GH release (%) 0 min: 1 nM hGH-RH(1–29)NH2 at 0 min
Experimental: Superfused Rat Pituitary System.
The analogs were tested in vitro in a test described earlier (S. Vigh and A. V. Schally, Peptides 5:241–347, 1984) with modification (Z. Rekasi and A. V. Schally, P.N.A.S. 90:2146–2149, 1993).
Briefly, the cells are preincubated with peptides for 9 minutes (3 mL) at various concentrations. Immediately after the incubation, 1 nM hGH-RH(1–29)NH2 is administered for 3 minutes (1 mL) [0 minute response]. To check the duration of the antagonistic effect of the analogue, 1 nM hGH-RH(1–29)NH2 is applied 30, 60, 90, and 120 minutes later for 3 minutes [30, 60, 90, 120 min responses]. Net integral values of the GH responses are evaluated. GH responses are compared to and expressed as percent of the original GH response induced by 1 nM GH-RH(1–29)NH2. The effect of the new antagonists are compared to that of [Ac-Tyr^1,D-Arg^2]hGH-RH(1–29)NH2, the “Standard antagonist”.
Growth Hormone Radio-immunoassay.
Rat GH levels in aliquots of undiluted and diluted superfusion samples were measured by double-antibody radioimmunoassay using materials supplied by the National Hormone and Pituitary Program, Baltimore, Md. The results of RIA were analyzed with a computer program developed in our institute (V. Csernus and A. V. Schally, in Neuroendocrine Research Methods, Harwood Academic (Greenstein, B. D. ed., London, pp. 71–109, 1991), hereby incorporated by reference. Inter-assay variation was less than 15% and intra-assay variation was less than 10%.

[2] = target: T1, rat pituitary GH-RH receptors (Rattus norvegicus, UniProt Q02644); experiment: GH-RH radioreceptor binding assay, rat anterior pituitary membrane homogenates; conditions: for Ki: competition with [His1,125I-Tyr10,Nle27]hGH-RH(1–32)NH2; for R.A. (relative affinity compared to Standard antagonist): ratio of Ki values
T1 construct: from tissue; host or cells: anterior pituitary of male Sprague-Dawley rats, crude membrane homogenates
T1 sequence (Q02644 23-464): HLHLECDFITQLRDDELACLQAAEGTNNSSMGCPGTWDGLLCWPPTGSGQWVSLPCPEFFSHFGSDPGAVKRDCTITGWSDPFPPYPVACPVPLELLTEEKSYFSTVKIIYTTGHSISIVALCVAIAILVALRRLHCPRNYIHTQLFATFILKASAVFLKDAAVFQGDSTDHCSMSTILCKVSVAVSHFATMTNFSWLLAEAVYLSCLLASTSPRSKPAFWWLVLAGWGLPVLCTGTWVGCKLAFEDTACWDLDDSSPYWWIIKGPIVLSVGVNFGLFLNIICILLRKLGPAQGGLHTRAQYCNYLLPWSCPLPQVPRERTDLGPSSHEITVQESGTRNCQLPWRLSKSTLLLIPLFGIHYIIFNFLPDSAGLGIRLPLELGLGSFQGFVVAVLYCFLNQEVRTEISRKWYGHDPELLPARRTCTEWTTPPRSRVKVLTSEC
Experimental: GH-RH Binding Assay. A sensitive radioreceptor binding assay was developed to determine the binding characteristics of the antagonists of GH-RH (G. Halmos, A. V. Schally et al., Receptor 3, 87–97, 1993), hereby incorporated by reference. The assay is based on binding of labelled [His^1,Nle^27]hGH-RH(1–32)NH2 to rat anterior pituitary membrane homogenates. Iodinated derivatives of [His^1,Nle^27]hGH-RH(1–32)NH2 are prepared by the chloramine-T method (F. C. Greenwood et al., Biochemistry 89:114–123, 1963), hereby incorporated by reference. Pituitaries from male Sprague-Dawley rats (250–300 g) are used to prepare crude membranes. For saturation binding analyses, membrane homogenates are incubated with at least 6 concentrations of [His^1,^125I-Tyr^10,Nle^27]hGH-RH(1–32) NH2, ranging from 0.005 to 0.35 nM in the presence or absence of excess unlabelled peptide (1 μM).
The pellet is counted for radioactivity in a γ-counter. The affinities of the antagonist peptides tested to rat pituitary GH-RH receptors are determined in competitive binding experiments. The final binding affinities are estimated by Ki (dissociation constant of the inhibitor-receptor complex) and are determined by the Ligand PC and McPherson computer programs of Munson and Rodbard (P. J. Munson and D. Rodbard, Anal. Biochem. 107. 220–239, 1980). Relative affinities compared to [Ac-Tyr^1,D-Arg^2]hGH-RH(1–29)NH2, the Standard antagonist, are calculated as the […].

[3] = system: GH release stimulated by hGH-RH(1–29)NH2; experiment: In vivo inhibition of serum GH response in rats; design: species or system rat; conditions: for Inhibition of the GH release stimulated by hGH-RH(1–29)NH2 (in words): 80 μg/kg i.v., rats
Experimental: GH-RH antagonistic effect of the analogs was tested on young male Sprague-Dawley rats (200–250 g). In each experiment, 5 groups of 7 animals each were used. The compounds (80 μg/kg) and GH-RH(1–29)NH2 (3 μg/kg) were dissolved in 5.5% mannitol and given intravenously to the jugular vein of the rats under Nembutal anesthesia. The time elapsed between the administrations of the antagonist and GH-RH varied between groups, according to the following schedule. The first group of animals received GH-RH injection 5 min after the administration of the antagonist; for the second, third and fourth group of animals, the time interval elapsed between the injection of the antagonist and that of GH-RH was 15, 30, and 60 min, respectively. The control group was first injected with the solvent alone instead of the antagonist, followed by a GH-RH injection 5 min later.
0.4 mL blood samples were taken for GH RIA before the administration of the antagonist (“blood0”), and 5 min after the injection of GH-RH (“blood1”). The GH response in each group was calculated as rGH=(GHblood1/GHblood0), mean±S.E.M. of the individual differences. Relative inhibition of GH response (%) in each group treated was calculated as […].

[4] = antagonist 80 μg/kg i.v. 5 min before GH-RH
[5] = antagonist 80 μg/kg i.v. 15 min before GH-RH
[6] = antagonist 80 μg/kg i.v. 15 min before GH-RH 3 μg/kg
[7] = antagonist 80 μg/kg i.v. 30 min before GH-RH
[8] = antagonist 80 μg/kg i.v. 30 min before GH-RH 3 μg/kg
[9] = antagonist 80 μg/kg i.v. 60 min before GH-RH
[10] = antagonist 80 μg/kg i.v. 60 min before GH-RH 3 μg/kg
[11] = rGH=GHblood1/GHblood0, antagonist 80 μg/kg i.v. 5 min before GH-RH 3 μg/kg

| SMILES | Inhibition of GH release (%) 30 min [1] [%] | Inhibition of GH release (%) 60 min [1] [%] | Inhibition of GH release (%) 90 min [1] [%] | Inhibition of GH release (%) 120 min [1] [%] | Inhibition of GH release (%) 0 min [1] [%] | Ki [2] [nM] | R.A. (relative affinity compared to Standard antagonist) [2] | Inhibition of the GH release stimulated by hGH-RH(1–29)NH2 (in words) [3] | Relative inhibition % of GH response [3, 4] [%] | Relative inhibition % of GH response [3, 5] [%] | GH response mean ± S.E.M. [3, 6] | Relative inhibition % of GH response [3, 7] [%] | GH response mean ± S.E.M. [3, 8] | Relative inhibition % of GH response [3, 9] [%] | GH response mean ± S.E.M. [3, 10] | GH response mean ± S.E.M. [3, 11] |
| --- | --- | --- | --- | --- | --- | --- | --- | --- | --- | --- | --- | --- | --- | --- | --- | --- |
| CCCC[C@H](NC(=O)[C@@H](NC(=O)[C@H](CC(=O)O)NC(=O)[C@H](CCC(N)=O)NC(=O)[C@H](CC(C)C)NC(=O)[C@H](CC(C)C)NC(=O)[C@H](CCCCN)NC(=O)[C@H](CCCNC(=N)N)NC(=O)[C@H](C)NC(=O)[C@H](CO)NC(=O)[C@H](CC(C)C)NC(=O)[C@H](CCC(N)=O)NC(=O)[C@H](CC)NC(=O)[C@H](CC(C)C)NC(=O)[C@@H](NC(=O)[C@H](CCCCN)NC(=O)[C@H](CCCNC(=N)N)NC(=O)[C@H](Cc1ccc(O)cc1)NC(=O)[C@H](CCCNC(=N)N)NC(=O)[C@H](CC(N)=O)NC(=O)[C@@H](NC(=O)[C@H](Cc1ccc(Cl)cc1)NC(=O)[C@@H](NC(=O)[C@H](C)NC(=O)[C@H](CC(=O)O)NC(=O)[C@@H](CCCNC(=N)N)NC(=O)[C@H](Cc1ccc(O)cc1)NC(=O)Cc1c[nH]c2ccccc12)[C@@H](C)CC)[C@@H](C)O)C(C)C)[C@@H](C)CC)C(=O)N[C@H](CCCNC(=N)N)C(=O)N[C@@H](CCCCNC(=N)N)C(N)=O [Peptide 2, [IndAc^0, D-Arg^2, Phe(pCl)^6, Arg^9, Abu^15, Nle^27, D-Arg^28, Har^29]hGH-RH(1–29)NH2] (X1-Y[dR]DAI[Phe(4-Cl)]TNRYRKVL[Abu]QLSARKLLQDI[Nle][dR][hArg]-NH2) | 100 | 100 | 100 | 91 | 100 | 0.046 | 64 | strong and long-lasting inhibition | 91 | 45 | 3.45 ± 0.13 | 41 | 3.64 ± 0.71 | 2 | 5.41 ± 1.35 | 1.40 ± 0.29 |
| CCCC[C@H](NC(=O)[C@@H](NC(=O)[C@H](CC(=O)O)NC(=O)[C@H](CCC(N)=O)NC(=O)[C@H](CC(C)C)NC(=O)[C@H](CC(C)C)NC(=O)[C@H](CCCCN)NC(=O)[C@H](CCCNC(=N)N)NC(=O)[C@H](C)NC(=O)[C@H](CO)NC(=O)[C@H](CC(C)C)NC(=O)[C@H](CCC(N)=O)NC(=O)[C@H](CC)NC(=O)[C@H](CC(C)C)NC(=O)[C@@H](NC(=O)[C@H](CCCCN)NC(=O)[C@H](CCCNC(=N)N)NC(=O)[C@H](Cc1ccc(O)cc1)NC(=O)[C@H](CCCCNC(=N)N)NC(=O)[C@H](CC(N)=O)NC(=O)[C@@H](NC(=O)[C@H](Cc1ccc(Cl)cc1)NC(=O)[C@@H](NC(=O)[C@H](C)NC(=O)[C@H](CC(=O)O)NC(=O)[C@@H](CCCNC(=N)N)NC(=O)[C@H](Cc1ccc(O)cc1)NC(=O)Cc1ccccc1)[C@@H](C)CC)[C@@H](C)O)C(C)C)[C@@H](C)CC)C(=O)N[C@H](CCCNC(=N)N)C(=O)N[C@@H](CCCCNC(=N)N)C(N)=O [Peptide 4, [PhAc^0, D-Arg^2, Phe(pCl)^6, Har^9, Abu^15, Nle^27, D-Arg^28, Har^29]hGH-RH(1–29)NH2] (PhAc-Y[dR]DAI[Phe(4-Cl)]TN[hArg]YRKVL[Abu]QLSARKLLQDI[Nle][dR][hArg]-NH2) | 86 | 80 | 79 | 68 | 83 | 0.087 | 34 | strong and long-lasting inhibition | 82 | 43 | 7.73 ± 1.12 | 7 | 12.00 ± 2.54 | 8 | 11.88 ± 0.90 | 3.08 ± 0.58 |
